The values below come from patent US9458145B2, “Benzimidazole derivatives as bromodomain inhibitors” (Gilead Sciences, Inc., priority 2013, dated 2016).

Where two headings read alike, the source gives them in different places.

One test concerns the target BRD4-1 (Homo sapiens (Human), UniProt O60885). The experiment in a line: BRD4-1 Ligand KI assay (TR-FRET, Cy5 labeled ligand displacement). The format is binding. How it is done: (§1) BRD4-1 Ligand KI and BRD4-2 Ligand KI Assays
(§2) Binding of the two tandem bromodomains, BRD4-I and BRD4-2, to a Cy5 labeled probe/ligand (Compound 1020-501) were measured using a homogeneous time resolved fluorescence resonance energy transfer (TR-FRET) assay.
(§3) The labeled ligand specifically binds BRD4-1 and BRD4-2 and can be displaced by a small molecule inhibitor that shares a similar or overlapping binding site. BRD4-I and BRD4-2 were expressed and purified from Escherichia coli as N-terminal His6, tagged proteins. A Eu-cryptate labeled anti-His antibody (Perkin Elmer) was used to specifically bind BRD4. […] Assays were performed in 50 mM Hepes (pH 7.5), 150 mM NaCl, 0.1 mg/ml BSA, 0.01% (v/v) Brij, 0.5% (v/v) DMSO and 10 nM labeled ligand at the following concentrations for each BRD4 isoform: 2 nM BRD4-1 and 0.5 nM BRD4-2. After an assay reaction time of 60 minutes at 25° C., binding was measured with 2 nM Eu-cryptate labeled anti-His antibody. TR-FRET signal was detected on an Envision plate reader (Ex: 320 nm; Em: 615/665 nm; 100 μs delay and 200 μs read window). […] All IC50 values represent geometric mean values of a minimum of four determinations. The IC50 values were converted to Ki values (dissociation constant for BRD4-inhibitor complex) using the Cheng and Prusoff equation for a competitive inhibitor mode of action. These assays generally produced results within 3-fold of the reported mean.

The next test addresses BRD4-2 (Homo sapiens (Human), UniProt O60885). The experiment in a line: BRD4-2 Ligand KI assay (TR-FRET, Cy5 labeled ligand displacement). It is filed as binding. How it is done:
as §1, §2, §3

In another test the test system is MT-4 cells. As to the kind of experiment: MT-4 proliferation assay. As to conditions: Homo sapiens, MT4, 120 h; Table 1; 5 days, Cell Titer Glo; method text calls it EC50; read-out: MT4 Assay, (IC50). It is filed as cell-based, human. How it is done: MT-4 Proliferation Assay:
Compounds were tested in a standardized high-throughput 384-well assay format. Each compound was serially diluted 3-fold in 100% DMSO in polypropylene 384-well plates using a Biomek FX Workstation, and 0.4 μL compound added to an assay plate containing 40 μL RPMI media. Compounds were arranged in a horizontal pattern, with 10 concentrations per compound, and 8 compounds added per plate. Due to low DMSO tolerability, the final DMSO concentration never exceeded 0.5% (v/v). Each assay plate contained 10 μM Puromycin and 0.5% DMSO in RPMI-1640 as positive and negative controls respectively. MT-4 cells (HTLV-1 transformed, human T lymphoblastoid cells, NIH Aids Reagent program) were added in volumes of 35 μL per well and 2,000 cells per well using a Biotek uFlow Workstation (Biotek, Winooski, Vt.), and the plates subsequently incubated for 5 days at 37° C. in an incubator set at 5% CO2 and 90% humidity.
After 5 days, 22 μL Cell Titer Glo (Promega) was added to the assay plates with a Biotek uFlow Workstation. Plates were subsequently placed on a Perkin Elmer Envision Plate Reader for 5 minutes before the luminescence signal was read.

[1] abbreviates: 2 nM BRD4-1, 10 nM labeled ligand, IC50 converted to Ki by Cheng and Prusoff.
Setting [2] is: 0.5 nM BRD4-2, 10 nM labeled ligand, IC50 converted to Ki by Cheng and Prusoff.

With `Cc1noc(C)c1-c1cc(C(O)(c2ccccn2)c2ncccn2)c2nc(C3CC3)[nH]c2c1` (racemic) [Compound 1020-239, (R) and (S)-(2-cyclopropyl-6-(3,5-dimethylisoxazol-4-yl)-1H-benzo[d]imidazol-4-yl)(pyridin-2-yl)(pyrimidin-2-yl)methanol], the IC50 at BRD4-1 came out at 5.9 nM; at BRD4-2, 6 nM.
Regarding `Cc1noc(C)c1-c1cc(C(O)(c2cccnn2)C2CCCO2)c2nc(C3CC3)[nH]c2c1` (single isomer, unassigned) [Compound 1020-289, (2-cyclopropyl-6-(3,5-dimethylisoxazol-4-yl)-1H-benzo[d]imidazol-4-yl)(pyridazin-3-yl)(tetrahydrofuran-2-yl)methanol], the IC50 on BRD4-1 (setting [1]) and at BRD4-2 (setting [2]) was 2 nM each time.
For the molecule `Cc1noc(C)c1-c1cc(C(O)(c2cccnn2)C2CCC(C)(C)O2)c2nc(C3CC3)[nH]c2c1` (single isomer, unassigned) [Compound 1020-298, (2-cyclopropyl-6-(3,5-dimethylisoxazol-4-yl)-1H-benzo[d]imidazol-4-yl)(5,5-dimethyltetrahydrofuran-2-yl)(pyridazin-3-yl)methanol], the values for the IC50 on BRD4-1 (setting [1]) and at BRD4-2 (setting [2]) were 5.4 nM and 3.6 nM, respectively.
In the case of `Cc1noc(C)c1-c1cc(C(O)C2CCCC2)c2nc(C3CC3)[nH]c2c1` (stereo not drawn) [Compound 1020-121, Cyclopentyl(2-cyclopropyl-6-(3,5-dimethylisoxazol-4-yl)-1H-benzo[d]imidazol-4-yl)methanol], in the test on MT-4 cells, the IC50 was 42.8 nM.
Consider `CCC(O)(CC)c1cc(-c2c(C)noc2C)cc2c1nc(C1CC1)n2C` [Compound 1020-132, 3-(2-Cyclopropyl-6-(3,5-dimethylisoxazol-4-yl)-1-methyl-1H-benzo[d]imidazol-4-yl)pentan-3-ol], for which the IC50 in the test with MT-4 cells stood at 544 nM.
Still for that read-out and setting: with `Cc1noc(C)c1-c1cc(N2C(=O)CCC2C)c2nc(C3CC3)[nH]c2c1` (stereo not drawn) [Compound 1020-136, 1-(2-Cyclopropyl-6-(3,5-dimethylisoxazol-4-yl)-1H-benzo[d]imidazol-4-yl)-5-methylpyrrolidin-2-one] the figure was 335 nM.
Same read-out and setting: with `CCC1CCC(=O)N1c1cc(-c2c(C)noc2C)cc2[nH]c(C3CC3)nc12` (stereo not drawn) [Compound 1020-137, 1-(2-Cyclopropyl-6-(3,5-dimethylisoxazol-4-yl)-1H-benzo[d]imidazol-4-yl)-5-ethylpyrrolidin-2-one] the figure was 113 nM; with `Cc1noc(C)c1-c1cc(S(=O)(=O)NC2CCCC2)c2nc(Cc3ccccc3)[nH]c2c1` [Compound 1020-141, 2-Benzyl-N-cyclopentyl-6-(3,5-dimethylisoxazol-4-yl)-1H-benzo[d]imidazole-4-sulfonamide], 887 nM.
On the same count and under the same terms, with `Cc1noc(C)c1-c1cc(S(=O)(=O)NC2CCCC2)c2nc(NCC(F)(F)F)[nH]c2c1` [Compound 1020-148] the figure was 495 nM.
